Values joined by “and” are separate entries in the source; they are usually repeats but may differ in a detail not shown here. Equal values may be shown once. Read-outs that look alike come from different tables or passages of the source. Peptide text beside a SMILES is read from it.
Target: T1, streptavidin (Streptomyces avidinii, UniProt P22629)
T1 construct: purchased New England Biolabs
Assay: biochemical
Format: binding
Settings: for more active than linear counterpart: ratio of KD, bicycle vs linear peptide
Procedure: SPR measurements were performed with 20 mM HEPES–KOH pH 7.4, 150 mM NaCl, 0.5 mM TCEP, 0.05% (v/v) polysorbate 20 as running buffer. For each experiment, 100–150 μg streptavidin in 10 mM sodium acetate pH 3.9 buffer was freshly immobilised on a sensor chip flow-cell using EDC/NHS chemistry at 25 °C in absence of TCEP. All binding experiments were conducted at 20 °C in single-cycle kinetics mode (Fig. 4, Supplementary Figs. 17, 18, Supplementary Data 2).
SPR experiments were performed on a Biacore 8K (Cytiva, USA) using a CM5 chip (Cytiva, 29104988, USA), onto which streptavidin (New England Biolabs, USA) was freshly immobilised using an amine coupling kit (Cytiva, USA) for each individual experiment. The instrument was operated using Biacore Insight 5 software (Cytiva, USA). The data were plotted and analysed in GraphPad Prism 10 (Dotmatics, USA) using the non-linear fit ‘one site – specific binding’ (Supplementary Equation 2). KD values of duplicate measurements are represented as the mean value ± standard deviation.
Supplementary Equation 2.
X = analyte concentration [µM]
RUmax = maximum response [RU]
KD = dissociation constant [µM]

T1 sequence (P22629 25-183): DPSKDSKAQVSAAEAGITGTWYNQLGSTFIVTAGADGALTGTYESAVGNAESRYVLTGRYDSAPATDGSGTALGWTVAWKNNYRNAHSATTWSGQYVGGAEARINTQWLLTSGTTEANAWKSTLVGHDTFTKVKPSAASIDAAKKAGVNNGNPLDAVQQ

Row | SMILES | affinity towards streptavidin (in words) (SPR) | Response (SPR, 0.390625 μM peptide) | Response (SPR, 0.78125 μM peptide) | Response (SPR, 1.5625 μM peptide) | Response (SPR, 3.125 μM peptide) | Response (SPR, 6.25 μM peptide) | Response (SPR, 12.5 μM peptide) | Response (SPR, 25 μM peptide) | Response (SPR, 50 μM peptide) | Response (SPR, 100 μM peptide) | Kd | also measured
1 | CSCC[C@@H]1NC(=O)[C@@H]2CCCN2C(=O)[C@H](Cc2c[nH]cn2)NC(=O)[C@H](CO)NC(=O)[C@@H](NC(=O)[C@H](C)N)C[S][Bi]2[S]C[C@@H](C(N)=O)NC(=O)[C@@H]3CCCN3C(=O)[C@H](Cc3ccccc3)NC(=O)CNC(=O)[C@H](CCC(=O)O)NC(=O)[C@H](C[S]2)NC1=O [1b] | micromolar affinity | 6.1348 RU and 7.3042 RU | 7.9335 RU and 9.6048 RU | 11.7844 RU and 13.9912 RU | 18.5476 RU and 21.5419 RU | 29.9992 RU and 34.3112 RU | 48.2716 RU and 55.717 RU | 75.0467 RU and 86.4584 RU | 95.3416 RU and 109.542 RU | 110.889 RU and 126.3 RU |  | 
2 | C[C@H](N)C(=O)N[C@H]1C[S][Bi]2[S]C[C@@H](C(N)=O)NC(=O)[C@H](C)NC(=O)[C@H](C)NC(=O)[C@H](C)NC(=O)[C@H](CCC(=O)O)NC(=O)[C@H](C[S]2)NC(=O)[C@H](CCC(N)=O)NC(=O)[C@@H]2CCCN2C(=O)[C@H](Cc2c[nH]cn2)NC(=O)[C@@H]2CCCN2C1=O [2b] | micromolar affinity | 13.0345 RU and 9.7931 RU | 13.307 RU and 10.0327 RU | 13.7466 RU and 10.2315 RU | 15.583 RU and 11.4763 RU | 24.2151 RU and 19.0135 RU | 41.2334 RU and 33.5268 RU | 50.6436 RU and 38.7895 RU | 52.9652 RU and 37.872 RU | 63.2365 RU and 47.0629 RU |  | Kd (SPR, 20 °C, single-cycle kinetics, 1b, 2b, 3a, 4a n = 2 (mean ± SD), 2, 3, 3b, 4b n = 1): 7.4 µM; more active than linear counterpart: approximately 200 times
3 | C[C@H](N)C(=O)N[C@H]1CS[As]2SC[C@@H](C(N)=O)NC(=O)[C@H](C)NC(=O)[C@@H]3CCCN3C(=O)[C@H](CCC(=O)O)NC(=O)[C@H]([C@@H](C)O)NC(=O)[C@H](CS2)NC(=O)[C@H](CC(N)=O)NC(=O)[C@H](CCC(N)=O)NC(=O)[C@@H]2CCCN2C(=O)[C@H](Cc2c[nH]cn2)NC1=O [3a] | micromolar affinity | 3.2004 RU and 3.5032 RU | 4.9583 RU and 6.3102 RU | 9.0442 RU and 11.2377 RU | 17.2093 RU and 20.7499 RU | 31.5997 RU and 35.2522 RU | 49.5222 RU and 52.7774 RU | 65.4485 RU and 68.0889 RU | 75.5589 RU and 77.8751 RU |  | 11.7 µM | more active than linear counterpart: approximately 80 times
4 | C[C@H](N)C(=O)N[C@H]1C[S][Bi]2[S]C[C@@H](C(N)=O)NC(=O)[C@H](C)NC(=O)[C@@H]3CCCN3C(=O)[C@H](CCC(=O)O)NC(=O)[C@H]([C@@H](C)O)NC(=O)[C@H](C[S]2)NC(=O)[C@H](CC(N)=O)NC(=O)[C@H](CCC(N)=O)NC(=O)[C@@H]2CCCN2C(=O)[C@H](Cc2c[nH]cn2)NC1=O [3b] | two-digit micromolar dissociation constants |  | 7.812 RU | 10.9116 RU | 21.8994 RU | 58.4112 RU | 130.364 RU | 206.319 RU | 242.538 RU | 254.246 RU |  | Response (SPR, 200 μM peptide): 258.218 RU
5 | CC(C)[C@@H]1NC(=O)[C@H](CCC(N)=O)NC(=O)[C@@H]2CCCN2C(=O)[C@H](Cc2c[nH]cn2)NC(=O)[C@@H](NC(=O)[C@H](C)N)CS[As]2SC[C@@H](C(N)=O)NC(=O)[C@H](CCC(=O)O)NC(=O)[C@H]([C@@H](C)O)NC(=O)[C@@H]3CCCN3C(=O)[C@H](CO)NC(=O)[C@H](CS2)NC1=O [4a] | micromolar affinity | 3.3313 RU and 3.9342 RU | 3.4046 RU and 4.4109 RU | 4.0632 RU and 5.3459 RU | 6.3333 RU and 7.9821 RU | 11.621 RU and 13.3151 RU | 22.2246 RU and 23.8712 RU | 39.0098 RU and 40.7076 RU | 57.9196 RU and 59.6228 RU | 73.3509 RU and 75.0552 RU | 42.8 ± 3.5 µM | 
6 | CC(C)[C@@H]1NC(=O)[C@H](CCC(N)=O)NC(=O)[C@@H]2CCCN2C(=O)[C@H](Cc2c[nH]cn2)NC(=O)[C@@H](NC(=O)[C@H](C)N)C[S][Bi]2[S]C[C@@H](C(N)=O)NC(=O)[C@H](CCC(=O)O)NC(=O)[C@H]([C@@H](C)O)NC(=O)[C@@H]3CCCN3C(=O)[C@H](CO)NC(=O)[C@H](C[S]2)NC1=O [4b] | two-digit micromolar dissociation constants |  | 5.1388 RU | 8.1368 RU | 20.2314 RU | 72.2878 RU | 222.296 RU | 413.089 RU | 508.05 RU | 531.655 RU |  | Response (SPR, 200 μM peptide): 538.328 RU
7 | C[C@H](N)C(=O)N[C@@H](CS)C(=O)N1CCC[C@H]1C(=O)N[C@@H](Cc1c[nH]cn1)C(=O)N1CCC[C@H]1C(=O)N[C@@H](CCC(N)=O)C(=O)N[C@@H](CS)C(=O)N[C@@H](CCC(=O)O)C(=O)N[C@@H](C)C(=O)N[C@@H](C)C(=O)N[C@@H](C)C(=O)N[C@@H](CS)C(N)=O [compound 2] (H-ACPHPQCEAAAC-NH2) |  |  |  |  |  |  |  |  |  |  | 1520 µM | affinity of linear versus bicyclic peptide (in words) (SPR): two orders of magnitude lower affinity; Response (SPR, 15.625 μM peptide): 3.2958 RU; Response (SPR, 31.25 μM peptide): 3.9468 RU; Response (SPR, 62.5 μM peptide): 5.3014 RU; Response (SPR, 125 μM peptide): 8.119 RU; Response (SPR, 250 μM peptide): 13.0777 RU; Response (SPR, 500 μM peptide): 20.3557 RU; Response (SPR, 1000 μM peptide): 32.6253 RU; Response (SPR, 2000 μM peptide): 47.8172 RU; Response (SPR, 4000 μM peptide): 62.2756 RU
8 | C[C@H](N)C(=O)N[C@@H](CS)C(=O)N[C@@H](Cc1c[nH]cn1)C(=O)N1CCC[C@H]1C(=O)N[C@@H](CCC(N)=O)C(=O)N[C@@H](CC(N)=O)C(=O)N[C@@H](CS)C(=O)N[C@H](C(=O)N[C@@H](CCC(=O)O)C(=O)N1CCC[C@H]1C(=O)N[C@@H](C)C(=O)N[C@@H](CS)C(N)=O)[C@@H](C)O [compound 3] (H-ACHPQNCTEPAC-NH2) |  |  |  |  |  |  |  |  |  |  | 927 µM | affinity of linear versus bicyclic peptide (in words) (SPR): two orders of magnitude lower affinity; Response (SPR, 11.7188 μM peptide): 4.8115 RU; Response (SPR, 23.4375 μM peptide): 6.9877 RU; Response (SPR, 46.875 μM peptide): 10.9154 RU; Response (SPR, 93.75 μM peptide): 18.7272 RU; Response (SPR, 187.5 μM peptide): 34.0455 RU; Response (SPR, 375 μM peptide): 61.2377 RU; Response (SPR, 750 μM peptide): 109.838 RU; Response (SPR, 1500 μM peptide): 163.522 RU; Response (SPR, 3000 μM peptide): 172.646 RU
